The values that follow are results of earlier work, collected in patent EP4108230A1, “NEW DRY POWDER COMPOSITION OF TIOTROPIUM FOR INHALATION” (Laboratoires SMB, priority 2021, dated 2022).

With `C[N+]1(C)[C@@H]2C[C@@H](OC(=O)C(O)(c3cccs3)c3cccs3)C[C@H]1[C@@H]1O[C@@H]12` [Tiotropium bromide, (1α, 2β, 4 β, 5α, 7β)-7-[(Hydroxydi-2-thienylacetyl)oxy]-9,9-dimethyl-3-oxa-9-azoniatricyclo[3.3.1.02,4] nonane bromide monohydrate], the solubility in methanol result (methanol) is listed as “soluble”. Besides, the solubility in water entry (water) is recorded as “sparingly soluble”.
